Columns and labels:
MSK1 = target: T1, MSK1 (Mus musculus, UniProt Q8C050); experiment: Western blot of cytoplasmic and nuclear MSK1 and phospho-serine 376 MSK1 in LPS-induced BV2 microglia; assay type: cell-based; conditions: BV2 cells, 22.0 μg/ml, 30 min pre-treatment then LPS 30 min
T1 construct: the cells were lysed and the cytoplasmic and nuclear protein fractions were collected; endogenous in cells; host or cells: BV2 microglia, LPS-induced
Experimental: (§1) Western blot analysis was performed in multiple varying formats before optimization was achieved. The BV2 microglia cell line was cultured in Dulbecco's Modified Eagle's Medium (DMEM)—complete medium. The complete medium consisted of DMEM, 1% Ampicillin, and 10% Fetal Bovine Serum (FBS). BV2 microglia cells, at a cell count of approximately 2×10^6, were seeded in each well (6 wells per plate) with 2.0 ml complete medium and cultured overnight in a ThermaForma HepaFilter Series II Coe Incubator at 37° Celsius. Upon establishing confluence, subconfluent cells were washed out and the wells were prepared with drug pre-treatment after overnight incubation.
(§2) The test drugs (curcuminoids) were procured as follows: curcumin I research standard (03926) (ChromaDex Irvine, Calif. USA) (97.7% purity); curcumin II research standard (04230) (ChromaDex Irvine, Calif. USA) (97.3%); curcumin III research standard (B6938) (Sigma-Aldrich St. Louis, Mo., USA) (97.7% purity); curcumin extract (curcumin I—77.7%, curcumin II—16.9%, curcumin III—0.9%) research standard (03928) (ChromaDex Irvine, Calif. USA) (95.3% purity); and Lipopolysaccharide (LPS) from E. Coli (L2630) (Sigma-Aldrich St. Louis, Mo., USA).
Curcuminoids are not soluble in aqueous medium due to their hydrophobic characteristic. However, curcuminoid extracts are soluble in polar organic solvents, such as DMSO and acetone. In this Example, each curcuminoid preparation was first dissolved in DMSO. DMSO was used in the drug preparation at 0.2%. The drug/DMSO solution was subsequently dissolved in DMEM to achieve a final drug concentration for each curcuminoid preparation tested—22.0 μg/ml curcuminoid. […]
Total protein concentration for each fraction was determined using a Bio Rad Protein Assay that is based on the Bradford Assay (dye-binding method). […]
The targets analyzed in the Western Blot included NFkB-p65 and its nucleocytoplasmic translocation, as well as kinases (including MSK1) and their covalent modifications upstream of and involved in the regulation of NFkB. […]

NFkB-p65 = experiment: Western blot of cytoplasmic and nuclear NFkB-p65 and phospho-serine 276 NFkB-p65 in LPS-induced BV2 microglia; assay type: cell-based; conditions: BV2 cells, 22.0 μg/ml, 30 min pre-treatment then LPS 30 min; for inhibition of NFkB-p65 nucleotranslocation (cytosolic and nuclear NFkB-p65 levels): FIGS. 3 and 4; for inhibition of NFkB-p65 serine 276 phosphorylation: cytoplasmic and nuclear, FIGS. 5 and 6
Experimental: as §1, §2
Curcuminoids are not soluble in aqueous medium due to their hydrophobic characteristic. However, curcuminoid extracts are soluble in polar organic solvents, such as DMSO and acetone. In this Example, each curcuminoid preparation was first dissolved in DMSO. DMSO was used in the drug preparation at 0.2%. The drug/DMSO solution was subsequently dissolved in DMEM to achieve a final drug concentration for each curcuminoid preparation tested—22.0 μg/ml curcuminoid. The DMEM/drug solution was used to replace the culture DMEM well medium and incubated for 30 minutes at 37-degrees Celsius in a ThermaForma incubator. At 31 minutes, lipopolysaccharide (LPS at […] final well concentration) induction of the cells was executed, except for the DMSO-only well to stimulate cell response amidst drug pre-treatment and without drug treatment.
The plates were then incubated for another 30 minutes after LPS stimulation. Upon removal from incubation, the cell medium was carefully removed and cells were washed, scraped, and collected with phosphate-buffered saline (PBS). Using a ThermoFisher Scientific NE-PER Nuclear and Cytoplasmic Extraction Kit (obtained from ThermoFisher Scientific Burlington, Ontario Canada), the cells were lysed and the cytoplasmic and nuclear protein fractions were collected and separated with the intention of probing each fraction for subcellular changes in cytoplasmic and nuclear proteins (as described further below).
Total protein concentration for each fraction was determined using a Bio Rad Protein Assay that is based on the Bradford Assay (dye-binding method). The total protein concentration determination was made prior to test sample preparation for gel electrophoresis execution (described below). The protein concentration colorimetric assay kit was purchased from Bio Rad Laboratories Canada Ltd. (Montreal, Quebec Canada). Each test sample was then prepared for loading and subjected to gel electrophoresis (SDS-PAGE) using a BioRad stain free gel system (Catalog No. 161-0181) and subsequently transferred/blotted to a nitrocellulose membrane (ThermoFisher Scientific Product No. 88018), blocked, and prepared for primary antibody treatment for each target.
The targets analyzed in the Western Blot included NFkB-p65 and its nucleocytoplasmic translocation, as well as kinases (including MSK1) and their covalent modifications upstream of and involved in the regulation of NFkB. Antibodies against NFkB-p65 (Ab16502) were procured from Abcam Inc. (Toronto, Ontario, Canada) as a primary antibody to probe for total NFkB-p65 levels in both nuclear and cytoplasmic fractions. […]

T1 sequence (Q8C050 whole entry): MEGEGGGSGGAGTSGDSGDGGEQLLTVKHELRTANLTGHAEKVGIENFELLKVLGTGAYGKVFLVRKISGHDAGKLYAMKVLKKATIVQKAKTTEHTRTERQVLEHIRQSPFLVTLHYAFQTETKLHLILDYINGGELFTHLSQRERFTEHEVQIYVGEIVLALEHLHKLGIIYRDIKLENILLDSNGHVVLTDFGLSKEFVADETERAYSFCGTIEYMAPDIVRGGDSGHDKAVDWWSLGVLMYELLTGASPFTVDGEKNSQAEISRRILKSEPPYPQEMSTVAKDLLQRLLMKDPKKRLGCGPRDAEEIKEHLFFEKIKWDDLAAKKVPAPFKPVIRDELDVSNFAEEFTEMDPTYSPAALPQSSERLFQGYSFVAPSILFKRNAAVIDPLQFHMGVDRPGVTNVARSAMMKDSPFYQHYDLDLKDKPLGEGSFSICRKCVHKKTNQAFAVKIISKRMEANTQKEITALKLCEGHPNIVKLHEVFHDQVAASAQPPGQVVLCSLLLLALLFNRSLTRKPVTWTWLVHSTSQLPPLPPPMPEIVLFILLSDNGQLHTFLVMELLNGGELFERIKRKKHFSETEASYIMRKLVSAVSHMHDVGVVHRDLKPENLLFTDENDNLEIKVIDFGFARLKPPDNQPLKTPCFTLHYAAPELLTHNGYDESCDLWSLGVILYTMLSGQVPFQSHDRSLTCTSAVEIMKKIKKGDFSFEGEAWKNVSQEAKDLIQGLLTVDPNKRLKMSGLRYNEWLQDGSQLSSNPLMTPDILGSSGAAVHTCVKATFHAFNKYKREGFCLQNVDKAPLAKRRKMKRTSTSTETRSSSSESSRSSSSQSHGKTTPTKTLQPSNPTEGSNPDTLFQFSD

Row | inhibition of MSK1 serine 376 phosphorylation (MSK1; cytoplasmic and nuclear, FIGS. 9 and 10) | SMILES | inhibition of NFkB-p65 nucleotranslocation (cytosolic and nuclear NFkB-p65 levels) (NFkB-p65) | inhibition of NFkB-p65 serine 276 phosphorylation (NFkB-p65) | inhibition of MSK1 protein levels in the cytoplasm (MSK1; FIG. 7) | inhibition of MSK1 protein levels in the nucleus (MSK1; FIG. 8)
1 | inhibit | COc1cc(/C=C/C(=O)CC(=O)/C=C/c2ccc(O)cc2)ccc1O [curcumin II, (1E,6E)-1-(4-Hydroxy-3-methoxyphenyl)-7-(4-hydroxyphenyl)hepta-1,6-diene-3,5-dione] | not significantly inhibited | moderately inhibit |  | 
2 |  | COc1cc(/C=C/C(=O)/C=C(O)/C=C/c2ccc(O)c(OC)c2)ccc1O [curcumin I, (1E,6E)-1,7-Bis(4-hydroxy-3-methoxyphenyl)-1,6-heptadiene-3,5-dione] | not significantly inhibited | moderately inhibit |  | 
3 |  | O=C(/C=C/c1ccc(O)cc1)CC(=O)/C=C/c1ccc(O)cc1 [curcumin III, (1E,6E)-1,7-bis(4-hydroxyphenyl)hepta-1,6-diene-3,5-dione] | not significantly inhibited | moderately inhibit | significantly inhibited and downregulated | significantly inhibited and downregulated
